# Data from patent publication US11427575B2, “Antitumor compound for activating JWA gene and degrading HER2, preparation method thereof, and application thereof” (SIMCERE PHARMACEUTICAL CO., LTD., priority 2019, dated 2022).
# Legend:
# BT474 cells [1] = settings: BT474, 1 and 10 μM, 10-15 d, vs control
# Experimental: (§1) Two human breast cancer cell lines BT474 and SKBR3 were incubated in DMEM medium containing, respectively, 20% and 10% fetal bovine serum (FBS), conventional double-antibody, and were placed in a 37° C. incubator with 5% CO2. The BT474 and SKBR3 cells in the logarithmic growth phase were transferred into 6-well plates for 800 cells per well. After the cells adhered to the walls of the plates, the cells were cultured in the medium containing different concentrations (0, 1, and 10 μM) of JAC1, respectively. By observing the formation of each cell colony, the cells were continued to be cultured for 10-15 d, followed by removal of medium. After fixation with methanol and photographing, the number of the cell colonies (each containing more than 50 cells) was counted using the software ImageJ, and the computer program SPSS is used for statistical analysis.
# SKBR3 cells [2] = settings: SKBR3, 1 and 10 μM, 10-15 d, vs control
# Experimental: as §1
# JWA protein [3] = test: Laser confocal immunofluorescence in HER2-positive breast cancer cells, JWA; assay type: cell-based, human; settings: immunofluorescence, 0, 1, 10 μM, 24 h
# Experimental: The cells were inoculated into a 35 mm glass bottom dish, treated with different concentrations (0, 1, and 10 μM) of JAC1 for 24 h, fixed with methanol for 15 min, washed three times with PBST, blocked with normal sheep serum for 1 h, and incubated in primary antibody overnight at 4° C. The cells were then washed three times with PBST, incubated in fluorescent secondary antibody and 4′,6-diamidino-2-phenylindole (DAPI), and photographed using a laser confocal scanning microscopy.
# HER2 protein = test: Western blot in HER2-positive breast cancer cells, HER2; assay type: cell-based, human; settings: increasing concentration, 24 h
# Experimental: The cells in the logarithmic growth phase were routinely digested, and transferred into 6-well plates at the cell density of 40%-50%. The cells were incubated with different concentrations of JAC1 for 24 h, followed by an addition of 0.1 mL of Radioimmunoprecipitation Assay Butter (RIPA, containing 0.5% phenylmethylsulfonyl fluoride (PMSF)) for protein extraction. After centrifugation at 12,000×g for 15 min, the supernatant was collected, and brought to a determination of protein concentration and a boil. Protein electrophoresis was performed with 10% polyacrylamide gel. The protein was transferred into the gel wells for 40 μg protein per well, migrated at 60 V for 30 min, and 90 V for 1.5-2 h. After gel electrophoresis, the protein was transferred by wet method from gel to a PVDF membrane, and blocked with 5% skim milk at room temperature for 1-2 h. The membrane was washed with Tris-Buffered Saline and Tween 20 (TBST, containing 0.1% Tween 20) three times for 5 min each, and incubated in the corresponding primary antibody overnight at 4° C. The membrane was then washed with the TBST (containing 0.1% Tween 20) three times for 5 min each, incubated in the secondary antibody at room temperature for 1-2 h, and washed with the TBST (containing 0.1% Tween 20) eight times for 5 min each. […]
# BT474 cells [4] = settings: BT474, Transwell, 0, 1, and 10 μL of JAC1, 12 h
# Experimental: (§2) BT474 and SKBR3 cells in the logarithmic growth phase were transferred into six-well plates at the cell density of 40%-50%. After the cells adhered to the walls of the plates, the cells were respectively incubated in […] of JAC1. Spreading gel in Transwell chamber: the day before the assay, a 24-well plate and a plurality of Transwell chambers were prepared, and 1 mg/mL fibronectin (FN) mother liquor was diluted 10 times to a final concentration of 100 μg/mL. The bottom of each Transwell chamber was coated with 50 μL of FN, placed on a clean bench to air-dry for 2 h, and cultured in an incubator overnight.
# (§3) On the day of the assay, the cultured cells were digested with 0.25% trypsin and resuspended in a serum-free medium in which the number of the cells were counted and the cell density was adjusted to 3×10^5 cells/mL. 100 μL of serum-free medium containing the cells was transferred onto the upper layer of each Transwell chamber, and 600 μL of mixture containing 10% FBS and 100 ng/mL EGF medium was added to the lower layer of each Transwell chamber. After incubation in an incubator for 12 h, the Transwell chambers were taken out, fixed with 95% methanol for 20 min, washed three times with phosphate-buffered saline (PBS), stained with crystal violet dye for 30 min, and washed three times with PBS. […]
# SKBR3 cells [5] = settings: SKBR3, Transwell, 0, 1, and 10 μL of JAC1, 12 h
# Experimental: as §2, §3
# JWA protein [6] = test: Western blot of subcutaneous BT474 tumors, JWA; assay type: in vivo, BALB/c nude mice; settings: treatment group
# Experimental: BT474 human breast cancer cells in the logarithmic growth phase were suspended in ice-cold suspension buffer for a final concentration of 5×10^6/100 μL, followed by subcutaneous transplantations of the suspended cells into BALB/c nude mice. When the tumor grown up to 75-125 mm^3, the BALB/c nude mice were randomly divided into five equal groups, including a blank control group (Mock), a solvent control group (Vehicle), a 50 mg/kg JAC1 treatment group, a 100 mg/kg JAC1 treatment group, and a positive control group treated with Pacilitaxel and Trastuzumab (TH). Dose and administration: JAC1 was injected intraperitoneally into mice once daily; the dosage of Trastuzumab was 10 mg/kg injected intraperitoneally twice a week; the dosage of Pacilitaxel was 20 mg/kg injected intraperitoneally once a week. From the day of administration, mouse body weights and tumor diameters were measured every other 2 days, and the tumor volume was calculated using an equation. When the mice reached a humane endpoint at which the tumor volume increased to 2500-3000 mm^3, the research based on the mouse models was terminated and the laboratory mice were anesthetized and euthanized in a timely manner to alleviate animal suffering and perform the statistical analysis. […]
smiles,measurement,setting,value
"COc1cccc2sc(Nc3nc4c(F)cccc4s3)nc12 [JAC1, 4-fluoro-N-(4-methoxybenzene (d)thiazole-2-group) benzene (d) thiazole-2-amine]",colony-forming ability,BT474 cells [1],significantly reduce the colony-forming ability
same,colony-forming ability,SKBR3 cells [2],significantly reduce the colony-forming ability
same,JWA protein level,JWA protein [3],JWA protein level increased
same,HER2 protein level,HER2 protein,HER2 protein level decreases
same,migratory ability,BT474 cells [4],effectively inhibit the migratory ability
same,migratory ability,SKBR3 cells [5],effectively inhibit the migratory ability
same,JWA protein level in tumor,JWA protein [6],significantly increased
